Results from PubChem BioAssay AID1963977 (Molecular Pharmacology Branch, DTP, NCI, 2024).
Values joined by “and” are separate entries in the source; they are usually repeats but may differ in a detail not shown here. Identical values can stand only once.

Tested on: 624824-186-R-J3-PDC multicell spheroids, viability
Experiment: Anticancer human tumor 624824-186-R-J3-PDC patient-derived colon adenocarcinoma cell line growth inhibition [PI3K]
Conditions: stronger effect = lower value; active = viability on the fitted dose curve at most 10% of control; inactive = the rest
Summary of the method: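 Tumor cells grown as multi-cell spheroids with HUVEC endothelial cells and MSC fibroblast-like stroma were treated with targeted agents combined with inavolisib, alpelisib, duvelisib or copanlisib. Doses fell in half-log steps from near clinical Cmax, else from 10 microM. Viability was measured.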

Measured: viability, T/C
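Note: luminescent signal used as a stand-in for spheroid viability; spheroids exposed to agents for seven days before luminescence read; percent viability relative to DMSO vehicle control wells taken as 100%.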

CC1(C)CCC(CN2CCN(c3ccc(C(=O)NS(=O)(=O)c4ccc(NCC5CCOCC5)c([N+](=O)[O-])c4)c(Oc4cnc5[nH]ccc5c4)c3)CC2)=C(c2ccc(Cl)cc2)C1
inactive: compound 0.0316 µM 101% [middle of 4 runs] | compound 0.1 µM 99.1% [middle of 4 runs] | compound 0.316 µM 103% (2×) and 102% and 107% | compound 1 µM 105% [middle of 4 runs] | compound 3.16 µM 110% [middle of 4 runs]
